In patent US10710978B2, “STK4 inhibitors for treatment of hematologic malignancies” (Dana-Farber Cancer Institute, Inc., priority 2015, dated 2020):
pIC50: −log10 of the molar value.

Experiments:
Test in all cases: Ambit KINOSCAN assay
Type in all cases: binding
CSNK1A1 = CSNK1A1 (Homo sapiens (Human), UniProt P48729); conditions: read-out: percent control (%) at 1 uM
Description: (§1) Kinase Selectivity Studies
(§2) To directly test the kinase selectivity of a compound of the present application over other human protein kinases, the compounds were tested in an Ambit KINOSCAN assay. Ambit KINOSCAN assay is an ATP site dependent competition assay. T7 kinase-tagged phage strains were grown in parallel in 24- or 96-well blocks in an E. coli host derived from the BL21 strain. E. Coli were grown to log phase and infected with T7 phage from a frozen stock and incubated with shaking at about 32° C. until lysis (˜90 min). The lysates were centrifuged (6,000 g) and filtered ([…]) to remove cell debris. […] The liganded beads were blocked with excess biotin and washed with blocking buffer (Seablock (Pierce), 1% BSA, 0.05% Tween 20, 1 mM DTT) to remove unbound ligand and to reduce non-specific phage binding. Binding reactions were assembled by combining phage lysates, liganded affinity beads, and test compounds (i.e., compounds of the present application) in 1× binding buffer (20% SeaBlock, 0.17×PBS, 0.05% Tween […]). Test compounds were prepared 1000× stocks in DMSO and rapidly diluted into the aqueous environment (0.1% DMSO final). DMSO (0.1%) was used as a control. All reactions were carried out in polystyrene 96-well plates that had been pre-treated with blocking buffer in a final volume of 0.1 ml. […] The phage titer in the eluates was measured by standard plaque assays or quantitative PCR. Binding data were fit to the equation […]), where L is the lower baseline, H is the upper baseline, Kd(test) is the biding constant for the interaction between the test compound and the kinase, and [test] is the free test compound concentration. Binding constants are measured in duplicate on the same day of testing. For more details on the Ambit KINOSCAN assay see Fabian, M. A., et al. “A Small Molecule-Kinase Interaction Map for Clinical Kinase Inhibitors” Nat. Biotechol. 23(3), 2005, 329-336. (Also see Davis, M. I., et al. “Comprehensive analysis of kinase inhibitor selectivity.” Nat. Biotechnol. 29(11), 2011, 1046-1051)

MST2 = MST2 (Homo sapiens (Human), UniProt Q13188)
Description: as §1, §2

DRAK1 = DRAK1 (Homo sapiens (Human), UniProt Q9UEE5); conditions: read-out: percent control (%) at 1 uM
Description: as §1, §2

CSNK1E = CSNK1E (Homo sapiens (Human), UniProt P49674)
Description: as §1, §2

CSNK1A1L = CSNK1A1L (Homo sapiens (Human), UniProt Q8N752); conditions: read-out: percent control (%) at 1 uM
Description: as §1, §2

CSNK1G3 = CSNK1G3 (Homo sapiens (Human), UniProt Q9Y6M4)
Description: as §1, §2

CIT = CIT (Homo sapiens (Human), UniProt O14578); conditions: read-out: percent control (%) at 1 uM
Description: as §1, §2

CSNK1G2 = CSNK1G2 (Homo sapiens (Human), UniProt P78368); conditions: read-out: percent control (%) at 1 uM
Description: as §1, §2

CLK4 = CLK4 (Homo sapiens (Human), UniProt Q9HAZ1); conditions: read-out: percent control (%) at 1 uM
Description: as §1, §2

IRAK1 = IRAK1 (Homo sapiens (Human), UniProt P51617)
Description: as §1, §2

DYRK1B = DYRK1B (Homo sapiens (Human), UniProt Q9Y463); conditions: read-out: percent control (%) at 1 uM
Description: as §1, §2

DYRK2 = DYRK2 (Homo sapiens (Human), UniProt Q92630); conditions: read-out: percent control (%) at 1 uM
Description: as §1, §2

CSNK1G1 = CSNK1G1 (Homo sapiens (Human), UniProt Q9HCP0); conditions: read-out: percent control (%) at 1 uM
Description: as §1, §2

BMPR1B = BMPR1B (Homo sapiens (Human), UniProt O00238); conditions: read-out: percent control (%) at 1 uM
Description: as §1, §2

GSK3A = GSK3A (Homo sapiens (Human), UniProt P49840); conditions: read-out: percent control (%) at 1 uM
Description: as §1, §2

MINK = MINK (Homo sapiens (Human), UniProt Q8N4C8); conditions: read-out: percent control (%) at 1 uM
Description: as §1, §2

CLK2 = CLK2 (Homo sapiens (Human), UniProt P49760); conditions: read-out: percent control (%) at 1 uM
Description: as §1, §2

VRK2 = VRK2 (Homo sapiens (Human), UniProt Q86Y07); conditions: read-out: percent control (%) at 1 uM
Description: as §1, §2

DYRK1A = DYRK1A (Homo sapiens (Human), UniProt Q13627); conditions: read-out: percent control (%) at 1 uM
Description: as §1, §2

DCAMKL3 = DCAMKL3 (Homo sapiens (Human), UniProt Q9C098); conditions: read-out: percent control (%) at 1 uM
Description: as §1, §2

CLK1 = CLK1 (Homo sapiens (Human), UniProt P49759); conditions: read-out: percent control (%) at 1 uM
Description: as §1, §2

[1] = read-out: percent control (%) at 1 uM

Chain of CSNK1E (P49674 whole entry): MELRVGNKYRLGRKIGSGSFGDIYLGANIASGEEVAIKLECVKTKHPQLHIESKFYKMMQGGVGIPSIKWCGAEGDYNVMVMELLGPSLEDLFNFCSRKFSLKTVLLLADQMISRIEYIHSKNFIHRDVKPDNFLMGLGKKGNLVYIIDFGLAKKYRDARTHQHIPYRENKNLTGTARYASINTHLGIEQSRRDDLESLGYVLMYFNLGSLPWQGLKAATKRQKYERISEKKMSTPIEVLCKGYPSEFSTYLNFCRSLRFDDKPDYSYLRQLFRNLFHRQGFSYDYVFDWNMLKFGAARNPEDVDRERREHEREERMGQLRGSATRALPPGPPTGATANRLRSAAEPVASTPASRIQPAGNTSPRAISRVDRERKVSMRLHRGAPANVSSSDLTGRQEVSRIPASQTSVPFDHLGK
Chain of MST2 (Q13188 whole entry): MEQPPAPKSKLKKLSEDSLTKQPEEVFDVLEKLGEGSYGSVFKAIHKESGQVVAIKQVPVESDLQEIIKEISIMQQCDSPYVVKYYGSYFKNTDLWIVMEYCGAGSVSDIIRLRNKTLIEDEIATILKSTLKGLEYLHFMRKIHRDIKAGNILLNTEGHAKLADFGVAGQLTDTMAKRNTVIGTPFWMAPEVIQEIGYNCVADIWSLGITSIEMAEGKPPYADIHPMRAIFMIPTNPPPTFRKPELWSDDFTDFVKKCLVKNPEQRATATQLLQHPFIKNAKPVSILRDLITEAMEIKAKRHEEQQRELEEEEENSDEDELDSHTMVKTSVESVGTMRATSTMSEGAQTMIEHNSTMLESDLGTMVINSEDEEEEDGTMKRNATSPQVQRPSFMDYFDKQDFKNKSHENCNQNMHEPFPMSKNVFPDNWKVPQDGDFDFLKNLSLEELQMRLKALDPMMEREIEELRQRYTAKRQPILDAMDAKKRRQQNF
Chain of IRAK1 (P51617 whole entry): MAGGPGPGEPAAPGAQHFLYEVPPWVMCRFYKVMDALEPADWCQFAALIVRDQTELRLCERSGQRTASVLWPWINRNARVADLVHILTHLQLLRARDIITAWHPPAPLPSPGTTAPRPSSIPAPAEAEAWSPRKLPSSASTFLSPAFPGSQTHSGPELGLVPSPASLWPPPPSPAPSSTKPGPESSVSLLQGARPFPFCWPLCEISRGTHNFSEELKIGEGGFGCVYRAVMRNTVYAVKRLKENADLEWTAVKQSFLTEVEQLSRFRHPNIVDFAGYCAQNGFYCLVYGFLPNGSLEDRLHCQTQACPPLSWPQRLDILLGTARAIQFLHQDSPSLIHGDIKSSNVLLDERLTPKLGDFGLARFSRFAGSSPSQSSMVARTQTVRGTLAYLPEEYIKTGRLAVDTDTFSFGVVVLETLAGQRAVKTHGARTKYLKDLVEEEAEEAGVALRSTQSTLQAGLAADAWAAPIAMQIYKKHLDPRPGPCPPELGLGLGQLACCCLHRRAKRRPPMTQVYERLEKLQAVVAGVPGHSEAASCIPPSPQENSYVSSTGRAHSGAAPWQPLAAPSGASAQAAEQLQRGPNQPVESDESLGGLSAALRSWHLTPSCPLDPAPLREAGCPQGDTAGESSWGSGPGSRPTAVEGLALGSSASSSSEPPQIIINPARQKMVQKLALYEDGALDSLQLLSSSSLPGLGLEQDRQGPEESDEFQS
Chain of CSNK1G3 (Q9Y6M4 whole entry): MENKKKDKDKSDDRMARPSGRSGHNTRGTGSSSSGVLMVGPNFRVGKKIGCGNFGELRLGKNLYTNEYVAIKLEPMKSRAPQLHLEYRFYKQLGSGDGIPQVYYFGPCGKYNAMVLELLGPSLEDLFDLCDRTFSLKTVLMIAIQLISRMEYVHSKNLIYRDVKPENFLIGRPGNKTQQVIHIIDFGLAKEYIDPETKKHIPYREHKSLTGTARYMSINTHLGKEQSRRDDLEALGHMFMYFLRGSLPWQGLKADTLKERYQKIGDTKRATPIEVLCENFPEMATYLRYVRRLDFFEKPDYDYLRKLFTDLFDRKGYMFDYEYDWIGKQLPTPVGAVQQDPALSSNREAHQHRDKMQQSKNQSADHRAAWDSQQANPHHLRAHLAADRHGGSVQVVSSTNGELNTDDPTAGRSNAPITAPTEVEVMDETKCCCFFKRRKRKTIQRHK
Chain of CLK4 (Q9HAZ1 whole entry): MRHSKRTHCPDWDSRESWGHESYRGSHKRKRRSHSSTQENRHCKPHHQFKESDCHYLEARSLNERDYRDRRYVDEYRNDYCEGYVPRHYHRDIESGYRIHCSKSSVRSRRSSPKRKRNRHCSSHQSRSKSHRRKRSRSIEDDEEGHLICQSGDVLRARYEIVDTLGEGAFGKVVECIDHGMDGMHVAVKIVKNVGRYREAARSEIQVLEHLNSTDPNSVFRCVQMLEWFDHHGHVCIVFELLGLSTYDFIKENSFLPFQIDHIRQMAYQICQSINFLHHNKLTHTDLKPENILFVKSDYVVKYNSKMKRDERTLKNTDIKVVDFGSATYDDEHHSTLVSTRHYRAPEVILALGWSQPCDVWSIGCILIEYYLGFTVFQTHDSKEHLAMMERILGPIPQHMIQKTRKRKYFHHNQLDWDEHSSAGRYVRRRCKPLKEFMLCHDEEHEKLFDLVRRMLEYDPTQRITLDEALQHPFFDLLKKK
Chain of DYRK2 (Q92630 whole entry): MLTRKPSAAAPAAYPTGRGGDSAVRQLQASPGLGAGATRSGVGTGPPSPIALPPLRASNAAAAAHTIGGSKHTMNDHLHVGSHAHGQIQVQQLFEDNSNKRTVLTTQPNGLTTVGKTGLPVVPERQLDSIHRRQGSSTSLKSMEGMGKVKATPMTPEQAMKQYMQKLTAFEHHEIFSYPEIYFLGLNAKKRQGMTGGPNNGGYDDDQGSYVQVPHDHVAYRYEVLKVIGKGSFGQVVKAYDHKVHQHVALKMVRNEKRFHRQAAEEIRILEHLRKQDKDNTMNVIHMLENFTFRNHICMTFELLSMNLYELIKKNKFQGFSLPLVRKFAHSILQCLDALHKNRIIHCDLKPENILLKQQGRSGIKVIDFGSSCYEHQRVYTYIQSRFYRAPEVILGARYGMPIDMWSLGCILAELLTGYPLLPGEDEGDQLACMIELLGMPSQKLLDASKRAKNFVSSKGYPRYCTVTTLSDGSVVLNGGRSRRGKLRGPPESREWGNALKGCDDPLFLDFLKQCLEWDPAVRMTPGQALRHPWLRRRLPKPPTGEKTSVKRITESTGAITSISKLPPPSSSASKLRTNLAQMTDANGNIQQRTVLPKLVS
Chain of GSK3A (P49840 whole entry): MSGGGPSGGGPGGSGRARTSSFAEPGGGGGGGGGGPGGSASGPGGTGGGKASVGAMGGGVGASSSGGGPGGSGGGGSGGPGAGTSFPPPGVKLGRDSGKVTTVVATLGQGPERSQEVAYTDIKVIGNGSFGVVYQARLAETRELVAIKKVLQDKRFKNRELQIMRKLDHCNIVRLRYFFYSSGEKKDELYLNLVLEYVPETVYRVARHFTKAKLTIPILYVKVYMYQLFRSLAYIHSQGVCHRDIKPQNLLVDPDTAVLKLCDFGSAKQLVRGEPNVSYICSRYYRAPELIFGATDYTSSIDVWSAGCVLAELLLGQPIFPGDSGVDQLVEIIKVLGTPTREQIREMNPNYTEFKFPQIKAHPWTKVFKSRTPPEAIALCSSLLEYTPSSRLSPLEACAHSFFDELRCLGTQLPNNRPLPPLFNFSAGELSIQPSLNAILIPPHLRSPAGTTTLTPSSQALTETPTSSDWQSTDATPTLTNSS
Chain of BMPR1B (O00238 14-502): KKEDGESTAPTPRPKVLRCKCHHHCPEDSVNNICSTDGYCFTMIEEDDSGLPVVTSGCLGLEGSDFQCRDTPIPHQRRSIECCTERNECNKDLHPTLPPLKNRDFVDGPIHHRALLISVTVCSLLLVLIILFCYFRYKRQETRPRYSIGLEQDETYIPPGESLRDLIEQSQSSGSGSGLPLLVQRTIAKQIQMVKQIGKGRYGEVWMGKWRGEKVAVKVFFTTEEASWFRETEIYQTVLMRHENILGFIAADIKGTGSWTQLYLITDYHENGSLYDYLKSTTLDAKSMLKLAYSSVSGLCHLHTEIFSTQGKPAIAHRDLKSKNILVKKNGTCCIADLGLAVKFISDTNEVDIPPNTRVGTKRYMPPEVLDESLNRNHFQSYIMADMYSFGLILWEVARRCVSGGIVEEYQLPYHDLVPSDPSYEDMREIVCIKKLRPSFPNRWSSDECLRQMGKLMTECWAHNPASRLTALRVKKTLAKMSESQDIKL
Chain of DCAMKL3 (Q9C098 whole entry): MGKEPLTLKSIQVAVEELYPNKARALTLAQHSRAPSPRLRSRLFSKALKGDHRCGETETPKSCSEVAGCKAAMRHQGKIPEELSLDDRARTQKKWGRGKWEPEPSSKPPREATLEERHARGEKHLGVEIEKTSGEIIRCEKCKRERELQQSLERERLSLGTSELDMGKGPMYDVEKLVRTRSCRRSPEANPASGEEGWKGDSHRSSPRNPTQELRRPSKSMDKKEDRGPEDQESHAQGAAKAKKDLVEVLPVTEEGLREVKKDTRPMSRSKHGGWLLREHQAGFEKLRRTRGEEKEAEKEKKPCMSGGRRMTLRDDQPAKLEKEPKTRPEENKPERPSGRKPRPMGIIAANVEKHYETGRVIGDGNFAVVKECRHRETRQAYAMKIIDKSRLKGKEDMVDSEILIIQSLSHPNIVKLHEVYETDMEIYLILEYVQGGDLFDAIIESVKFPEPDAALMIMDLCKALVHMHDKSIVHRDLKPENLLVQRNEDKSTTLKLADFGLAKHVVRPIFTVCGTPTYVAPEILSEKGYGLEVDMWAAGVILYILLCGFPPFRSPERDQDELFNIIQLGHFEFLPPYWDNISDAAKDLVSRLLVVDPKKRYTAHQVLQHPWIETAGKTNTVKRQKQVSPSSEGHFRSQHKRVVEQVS

remaining binding at 1 µM (CSNK1A1): 3.7%
pIC50 (MST2; Kinase Selectivity Data, MST2): 7.37
remaining binding at 1 µM (MST2; [1]): 1.2%
remaining binding at 1 µM (DRAK1): 0.15%
pIC50 (CSNK1E; Kinase Selectivity Data, CSNK1E): 6.70
remaining binding at 1 µM (CSNK1E; [1]): 0.1%
remaining binding at 1 µM (CSNK1A1L): 1.7%
pIC50 (CSNK1G3; Kinase Selectivity Data, CSNK1G3): 8.33
remaining binding at 1 µM (CSNK1G3; [1]): 0%
remaining binding at 1 µM (CIT): 0.05%
remaining binding at 1 µM (CSNK1G2): 4%
remaining binding at 1 µM (CLK4): 2.6%
pIC50 (IRAK1; Kinase Selectivity Data, IRAK1): 6.96
remaining binding at 1 µM (IRAK1; [1]): 2.8%
remaining binding at 1 µM (DYRK1B): 0.75%
remaining binding at 1 µM (DYRK2): 3%
remaining binding at 1 µM (CSNK1G1): 4.6%
remaining binding at 1 µM (BMPR1B): 0.75%
remaining binding at 1 µM (GSK3A): 0%
remaining binding at 1 µM (MINK): 3.8%
remaining binding at 1 µM (CLK2): 5%
remaining binding at 1 µM (VRK2): 2.4%
remaining binding at 1 µM (DYRK1A): 0%
remaining binding at 1 µM (DCAMKL3): 2.5%
remaining binding at 1 µM (CLK1): 1.6%
Structure (SMILES): Nc1ncc(-c2cc([N+](=O)[O-])ccc2F)cc1-c1ccc2c(c1)CCNC2=O [Compound I-1, 6-(2-amino-5-(2-fluoro-5-nitrophenyl)pyridin-3-yl)-3,4-dihydroisoquinolin-1(2H)-one]
